Test results reported in patent US20230381170A1, “METHOD FOR TREATING ALS/FTD THROUGH DEGRADATION OF RNA REPEAT EXPANSION” (University of Florida Research Foundation, Incorporated, priority 2020, published 2023).

Legend:
[1] = molecular target: T1, ternary complex r(G4C2)66, RNase L and 7 (Homo sapiens, UniProt Q05823); experiment: RNase L RNA immunoprecipitation in HEK293T cells; type: cell-based; conditions: 500 nM, compared to vehicle
T1 construct: for degradation by recruiting the endogenous nuclease Rnase L; endogenous in cells; host or cells: HEK293T cells transfected with the (G4C2)66-No ATG-GFP plasmid (RNA only)
Protocol: RNA Immunoprecipitation. HEK293T cells were transfected with (G4C2)66-No ATG-GFP plasmid as described above, split into in 6-well plates, grown to ˜70% confluency, and treated with 500 nM 7 diluted in growth media for 24 h. The cell was washed with 1×PBS, removed from the plate with Accutase (Innovative Cell Technologies, Inc.), and then washed with 1×PBS. Cells were then lysed in 100 μL of M-PER buffer supplemented with 80 U RNaseOUT Recombinant Ribonuclease Inhibitor (Invitrogen) and 1× Protease Inhibitor Cocktail III for Mammalian Cells (Research Products International Corp.) per manufacturer's recommendations. The protein samples were tumbled overnight at 4° C. with Dynabeads Protein A (Life Technologies) that were bound to either β-actin mouse primary antibody (Cell Signaling Technologies; 3700S) or Rnase L mouse primary antibody (Santa Cruz Biotechnology; sc-74405). After antibody incubation, the beads were washed three times with 1×PBS supplemented with 0.02% Tween-20 and total RNA was extracted from beads using a miRNeasy Mini Kit (Qiagen) according to manufacturer's instructions.
Relative RNA expression levels before and after pull-down were determined by the ΔΔCt method and normalized to β-actin as a housekeeping gene.

Poly(GP) = Poly(GP) sandwich immunoassay in brain of +/+PWR500 mice; type: in vivo, mouse
Protocol: Therapeutic Efficacy in a c9ALS/FD mouse model. All animal studies were completed as approved by the Scripps Florida Institutional Animal Care and Use Committee. A total of 24 mice (12+/+PWR500 [7 Male and 5 Female] and 12 WT [6 Male and 6 Female]) mice, age- and gender-matched and ranging in age from 18-22 weeks old were used in therapeutic efficacy studies (Table 6). Mice were anesthetized by intraperitoneal (i.p.) injection of 10 mg/mL Ketamine:1 mg/mL Xylazine solution. Intracerebroventricular (ICV) stereotactic injections of 10 μL of 7 (33 nmol) were administered into the right ventricle using the following coordinates: 0.2 mm posterior and 1.0 mm lateral to the right from the bregma and 3 mm deep. Mice were treated with 7 or vehicle consisting of 1% DMSO in Saline. Three weeks post-treatment, mice were euthanized, and tissue was harvested for study.
Measuring Poly(GP) by MSD. Postmortem brain tissue was harvested and sliced sagittal at the midline. The left hemisphere was frozen for protein and RNA analysis. The left hemisphere of each brain was homogenized in 300 μL of ice-cold Tris-EDTA buffer with 2× protease inhibitors. […] Protein concentrations were measured by BCA assay (Pierce Biotechnology) and Poly(GP) was measured as described above. Statistical analysis was measured using an unpaired t-test with Welch's correction.

C9orf72 intron 1 = C9orf72 intron 1 RT-qPCR in LCLs from a healthy donor; type: cell-based, human
Protocol: Measuring Levels of C9orf72 and C9orf72 Variants by RT-qPCR. LCLs were seeded in 6-well plate (˜10^6 cells in 2 mL of growth medium) and incubated overnight at 37° C. Cells were then treated with various concentrations of compound for 24 h or with G4C2-ASO and Control-ASO (100 nM), delivered by transfection with Lipofectamine RNAiMax. RNA was extracted as described above and the expression of C9orf72 variants was determined by RT-qPCR. […] For compound treatment well, medium change was performed with fresh compound every 3-4 days. RNA was extracted as described above and the expression of C9orf72 variants was determined by RT-qPCR.

r(G4C2)4 = experiment: 1D NMR imino proton monitoring; type: binding
Protocol: (§1) Preparation of MNR Samples. RNA constructs were purchased from GE Dharmacon, Inc. After deprotection and desalting, RNAs were dissolved in buffer comprising 10 mM sodium phosphates and 100 mM LiCl at pH 7.0 and reannealed by heating to 95° C. for 4 min followed by cooling to room temperature. Solvent consisted of H2O, to which 20 μL of D2O was added to provide a lock signal. Final concentrations of RNA were 100 μM for 1D NMR spectroscopy and 400 μM of RNA for 2D NMR spectroscopy. Dimeric derivatives 2 and 3 were dissolved in DMSO-d6 to 10 mM concentrations.
(§2) NMR Spectroscopy. NMR spectra were acquired on samples in Shigemi tubes using Bruker Avance 600 and 700 MHz spectrometers equipped with cryoprobes. 1D spectra were recorded on free form RNA, to which 2 and 3 was added to final compound/RNA molar ratios of 0.5 and 1.0. 2D spectra were acquired with 400 ms mixing times on samples containing 3 at 1.0 compound/RNA molar ratio. In 1D and 2D NMR spectra, WATERGATE and excitation pulse sequences were used to suppress the water signal, respectively (53-55). Proton chemical shifts were referenced internally to 4,4-dimethyl-4-silapentane-1-sulfonic acid (DSS, 0.1 mM). 1D spectra were processed using MestreNOVA software. 2D spectra were processed using NMRPipe and assigned using SPARKY (56).

r(G2C2)4 = experiment: 1D NMR imino proton monitoring; type: binding; conditions: hairpin with fully paired stem
Protocol: as §1, §2

c9 patient-derived iPSCs = experiment: Cell viability; type: cell-based, human; conditions: 1-1000 nM
Protocol: Cell Viability. Lymphoblastoid cells were seeded in 96-well plate (˜10^4 cells/well) overnight and then treated with compounds for 48 h. The cell viability was measured by CellTiter-Fluor™ Cell Viability Assay per the manufacturer's protocol. For iPSCs, cells (diluted 1:4 after harvesting from a 100 mm dish) were seeded in Matrigel-coated 24-well plate. After 24 h, the compounds were added for 48 h and cell viability was measured by AlamarBlue™ Cell Viability Reagent (DAL1025, Thermo Fisher Scientific) per the manufacturer's protocol.

T1 sequence (Q05823 whole entry, one chain of several): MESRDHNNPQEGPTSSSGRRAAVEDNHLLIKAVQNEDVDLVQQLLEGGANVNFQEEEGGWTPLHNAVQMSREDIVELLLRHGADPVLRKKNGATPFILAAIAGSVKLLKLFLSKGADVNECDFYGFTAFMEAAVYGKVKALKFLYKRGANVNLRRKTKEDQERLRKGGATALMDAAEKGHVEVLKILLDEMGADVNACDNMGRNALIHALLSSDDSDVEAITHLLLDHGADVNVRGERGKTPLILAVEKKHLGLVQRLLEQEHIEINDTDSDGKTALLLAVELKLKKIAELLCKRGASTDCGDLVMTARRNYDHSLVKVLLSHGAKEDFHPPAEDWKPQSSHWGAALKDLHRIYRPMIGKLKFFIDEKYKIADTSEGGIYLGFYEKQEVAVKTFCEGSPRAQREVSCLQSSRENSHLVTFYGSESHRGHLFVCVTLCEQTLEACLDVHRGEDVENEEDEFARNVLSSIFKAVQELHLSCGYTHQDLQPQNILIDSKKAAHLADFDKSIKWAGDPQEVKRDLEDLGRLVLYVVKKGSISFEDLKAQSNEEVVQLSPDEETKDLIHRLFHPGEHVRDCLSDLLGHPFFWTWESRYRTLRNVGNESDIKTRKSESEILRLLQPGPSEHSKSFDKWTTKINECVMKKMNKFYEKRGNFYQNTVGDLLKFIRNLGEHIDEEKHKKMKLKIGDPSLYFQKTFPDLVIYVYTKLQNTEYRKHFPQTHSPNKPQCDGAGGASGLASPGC

CCOC(=O)C1=C(Nc2ccccc2)S/C(=C\c2ccc(OCCOCCOCCOCCNC(=O)CCC(=O)N(CCOCCOCCOc3ccc4[nH]c5c(C)c6ccncc6c(C)c5c4c3)CCOCCOCCOc3ccc4[nH]c5c(C)c6ccncc6c(C)c5c4c3)c(O)c2)C1=O [Compound 7]
enrichment of r(G4C2)exp-containing mRNA in anti-Rnase L immunoprecipitated fractions [1]: ~2 fold | reduction of Poly(GP) (Poly(GP); 33 nmol ICV, three weeks, brain): 74±24% | actin protein expression (control) (Poly(GP); +/+PWR500 or WT mice): no decrease | C9orf72 intron 1 levels (C9orf72 intron 1): did not affect

Cc1c2ccncc2c(C)c2c1[nH]c1ccc(OCCOCCOCCNCCOCCOCCOc3ccc4[nH]c5c(C)c6ccncc6c(C)c5c4c3)cc12 [Compound 3]
complex formation, imino proton region 1D NMR (r(G4C2)4): verified | changes in 1D NMR spectrum upon addition of compound (r(G2C2)4): no changes were observed | toxicity (c9 patient-derived iPSCs): no toxicity
